Measurements reported in patent publication US20250144067A1, “PERSONALIZED STARVATION THERAPY FOR CANCER” (Faeth Therapeutics, Inc., priority 2021, published 2025).
Where a name gives a salt, the structure may show the parent alone. Read-outs that look alike come from different tables or passages of the source.

Legend:
[1] = test system: NCI-H292 lung cancer cells; test: FDA drug screening, complete media vs cholesterol-free media without statin (TABLE 1); assay type: cell-based, human
[2] = test system: NCI-H292 lung cancer cells; test: FDA drug screening, complete media vs cholesterol-free media with simvastatin (TABLE 2); assay type: cell-based, human
[3] = Complete minus Cholesterol-free, greater than 0 enhanced anti-cancer activity, about 0 neutral, below 0 antagonist
[4] = NCI-H292 cells, FDA drug library screen, cholesterol-free media without statin
[5] = NCI-H292 cells, FDA drug library screen, complete media
[6] = NCI-H292 cells, cholesterol-free media with simvastatin 0.04 μM, FDA drug library screen (TABLE 2)
[7] = NCI-H292 cells, complete media, FDA drug library screen (TABLE 2)
[8] = complete media minus cholesterol-free media + simvastatin (0.04 μM), >0 enhanced anti-cancer activity, about 0 neutral, <0 antagonist
[9] = complete media vs cholesterol-free media + simvastatin (0.04 μM), >0 enhanced anti-cancer activity, about 0 neutral, <0 antagonist
[10] = NCI-H292 cells, FDA drug library screen, cholesterol-free media with simvastatin 0.04 μM
[11] = Complete minus Cholesterol-free, >0 enhanced anti-cancer activity, about 0 neutral, <0 antagonist
[12] = NCI-H292 cells, cholesterol-free media without statin
[13] = complete media minus cholesterol-free media + simvastatin, >0 enhanced anti-cancer activity, about 0 neutral, <0 antagonist
[14] = NCI-H292 cells, FDA library drug in cholesterol-free media with simvastatin 0.04 μM
[15] = NCI-H292 cells, FDA library drug in complete media
[16] = NCI-H292 cells, cholesterol-free media without statin, FDA drug library screen
[17] = NCI-H292 cells, complete media, FDA drug library screen
[18] = Complete minus Cholesterol-free, […]
[19] = NCI-H292 cells in cholesterol-free media without statin
[20] = NCI-H292 cells in complete media
[21] = NCI-H292 cells, cholesterol-free media with simvastatin 0.04 μM, cell growth value in FDA drug screen
[22] = NCI-H292 cells, complete media, cell growth value in FDA drug screen
[23] = complete vs cholesterol-free media, greater than 0 enhanced anti-cancer activity, about 0 neutral, below 0 antagonists

Molecule: CC(C)(C)c1nc(-c2cccc(NS(=O)(=O)c3c(F)cccc3F)c2F)c(-c2ccnc(N)n2)s1 [Dabrafenib]
- Difference [1, 3]: −0.18
- Cholesterol-free [1, 4]: 0.7255
- Complete [1, 5]: 0.5433
- Cholesterol-free media + simvastatin (0.04 μM) [2, 6]: 0.7299
- Complete Media [2, 7]: 0.7037
- Difference [2, 8]: −0.03

Molecule: CCOC(=O)[C@H](CCc1ccccc1)N[C@@H](C)C(=O)N1[C@H](C(=O)O)C[C@H]2CCCC[C@@H]21 [Trandolapril]
- Difference [1, 3]: −0.10
- Cholesterol-free [1, 4]: 1.068
- Complete [1, 5]: 0.9671
- Cholesterol-free media + simvastatin (0.04 μM) ([2]; NCI-H292 cells, drug in cholesterol-free media with simvastatin 0.04 μM): 1.441
- Complete Media ([2]; NCI-H292 cells, drug in complete media): 1.221
- Difference [2, 9]: −0.22

Molecule: CC(C)(C)NCC(O)CSc1nc(-c2ccc(C(N)=O)s2)cs1 (centres unmarked) [Arotinolol]
- Difference [1, 3]: −0.18
- Cholesterol-free [1, 4]: 1.165
- Complete [1, 5]: 0.9888
- Cholesterol-free media + simvastatin (0.04 μM) [2, 10]: 1.158
- Complete Media [2, 5]: 1.017
- Difference [2, 9]: −0.14

Molecule: Rupatadine (Fumarate)
- Difference [1, 11]: −0.23
- Cholesterol-free [1, 12]: 1.308
- Cholesterol-free media + simvastatin (0.04 μM) [2, 10]: 0.9792
- Complete Media [2, 5]: 1.536
- Difference [2, 13]: 0.56

Molecule: CCN(CC)CCOC(=O)c1ccc(N)cc1Cl [Chloroprocaine (hydrochloride)]
- Difference [1, 11]: −0.28
- Cholesterol-free [1, 12]: 1.161
- Complete ([1]; NCI-H292 cells, complete media): 0.8831
- Cholesterol-free media + simvastatin (0.04 μM) [2, 14]: 1.184
- Complete Media [2, 15]: 0.9029
- Difference [2, 9]: −0.28

Molecule: O=c1[nH]c(=O)n([C@H]2C[C@H](O)[C@@H](CO)O2)cc1F [Floxuridine]
- Difference [1, 11]: −0.01
- Cholesterol-free [1, 16]: 0.09159
- Complete [1, 17]: 0.08047
- Cholesterol-free media + simvastatin (0.04 μM) [2, 6]: 0.09098
- Complete Media [2, 7]: 0.02907
- Difference [2, 8]: −0.06

Molecule: Cc1ncc(C[n+]2csc(CCO)c2C)c(N)n1 [Thiamine monochloride]
- Difference [1, 11]: −0.23
- Cholesterol-free [1, 12]: 0.9486
- Complete ([1]; NCI-H292 cells, complete media): 0.7138
- Cholesterol-free media + simvastatin (0.04 μM) [2, 10]: 1.042
- Complete Media [2, 5]: 0.9007
- Difference [2, 9]: −0.14

Molecule: Sodium tauroglycocholate
- Difference [1, 18]: −0.95
- Cholesterol-free [1, 19]: 1.712
- Complete [1, 20]: 0.7634
- Cholesterol-free media + simvastatin (0.04 μM) [2, 14]: 1.256
- Complete Media [2, 15]: 0.9729
- Difference ([2]; complete media vs cholesterol-free media + simvastatin (0.04 μM), […]): −0.28

Molecule: CO/N=C(\C(=O)N[C@@H]1C(=O)N2C(C(=O)OC(C)OC(C)=O)=C(COC(N)=O)CS[C@H]12)c1ccco1 (some centres unmarked) [Cefuroxime axetil]
- Difference [1, 3]: −0.18
- Cholesterol-free [1, 4]: 0.8605
- Complete [1, 5]: 0.6767
- Cholesterol-free media + simvastatin (0.04 μM) [2, 21]: 1.05
- Complete Media [2, 22]: 1.073
- Difference [2, 13]: 0.02

Molecule: CO[C@@]1(NC(=O)Cc2cccs2)C(=O)N2C(C(=O)O)=C(COC(N)=O)CS[C@@H]21 [Cefoxitin]
- Difference [1, 3]: −0.13
- Cholesterol-free [1, 4]: 0.8861
- Complete [1, 5]: 0.755
- Cholesterol-free media + simvastatin (0.04 μM) [2, 14]: 1.841
- Complete Media [2, 15]: 1.5
- Difference [2, 9]: −0.34

Molecule: Naloxegol (oxalate)
- Difference [1, 18]: −0.15
- Cholesterol-free [1, 4]: 1.025
- Cholesterol-free media + simvastatin (0.04 μM) [2, 10]: 0.8544
- Difference ([2]; complete media minus cholesterol-free media + simvastatin, […]): 0.21

Molecule: O=c1ccn([C@@H]2O[C@H](COP(=O)([O-])OP(=O)([O-])OP(=O)([O-])OP(=O)([O-])OC[C@H]3O[C@@H](n4ccc(=O)[nH]c4=O)[C@H](O)[C@@H]3O)[C@@H](O)[C@H]2O)c(=O)[nH]1.[Na+].[Na+].[Na+].[Na+] [Diquafosol (tetrasodium)]
- Difference [1, 3]: −0.16
- Cholesterol-free [1, 4]: 0.9096
- Complete [1, 5]: 0.7536
- Cholesterol-free media + simvastatin (0.04 μM) [2, 10]: 1.438
- Complete Media [2, 5]: 1.601
- Difference [2, 13]: 0.16

Molecule: Cc1nnc(SCC2=C(C(=O)O)N3C(=O)[C@@H](NC(=O)Cn4cnnn4)[C@H]3SC2)s1 [Cefazolin]
- Difference ([1]; Complete minus Cholesterol-free, greater than 0 enhanced anti-cancer activity, about 0 neutral, below 0 antagonists): −0.54
- Cholesterol-free [1, 19]: 1.603
- Complete [1, 20]: 1.065
- Cholesterol-free media + simvastatin (0.04 μM) [2, 10]: 1.197
- Complete Media [2, 5]: 1.069
- Difference [2, 9]: −0.13

Molecule: Atazanavir (sulfate)
- Difference [1, 3]: −0.18
- Cholesterol-free [1, 4]: 1.207
- Complete [1, 5]: 1.022
- Cholesterol-free media + simvastatin (0.04 μM) [2, 10]: 1.26
- Complete Media [2, 5]: 1.128
- Difference [2, 9]: −0.13

Molecule: O=C(O)CCCCC1CCSS1 (centres unmarked) [Lipoic acid]
- Difference [1, 3]: −0.11
- Cholesterol-free [1, 4]: 0.8613
- Complete [1, 5]: 0.7528
- Cholesterol-free media + simvastatin (0.04 μM) [2, 10]: 0.7443
- Complete Media [2, 5]: 1.012
- Difference [2, 13]: 0.27

Molecule: CCN(CC)Cc1cc(Nc2ccnc3cc(Cl)ccc23)ccc1O [Amodiaquine (dihydrochloride dihydrate)]
- Cholesterol-free [1, 16]: 0.9158
- Complete [1, 17]: 1.353
- Difference ([1]; complete vs cholesterol-free media, >0 enhanced anti-cancer activity, about 0 neutral, <0 antagonist): 0.44
- Cholesterol-free media + simvastatin (0.04 μM) [2, 10]: 1.209
- Complete Media [2, 5]: 1.606
- Difference [2, 13]: 0.40

Molecule: CC(O)(P(=O)(O)O)P(=O)(O)O [Etidronic acid]
- Cholesterol-free [1, 12]: 1.196
- Complete ([1]; NCI-H292 cells, complete media): 0.8527
- Difference [1, 23]: −0.34
- Cholesterol-free media + simvastatin (0.04 μM) [2, 6]: 0.8968
- Complete Media [2, 7]: 0.9014
- Difference [2, 8]: 0.00

Molecule: O=C(O[C@H]1C[N+]2(CCCOc3ccccc3)CCC1CC2)C(O)(c1cccs1)c1cccs1.[Br-] [Aclidinium (Bromide)]
- Cholesterol-free [1]: 1.253
- Complete [1]: 0.9873
- Difference [1]: −0.27
- Cholesterol-free media + simvastatin (0.04 μM) [2]: 0.8781
- Complete Media [2]: 0.7357
- Difference [2]: −0.14

Molecule: CC1(C)O[C@@H]2C[C@H]3[C@@H]4C[C@H](F)C5=CC(=O)C=C[C@]5(C)[C@H]4[C@@H](O)C[C@]3(C)[C@]2(C(=O)CO)O1 [Flunisolide]
- Difference [1, 11]: −0.06
- Cholesterol-free [1, 16]: 0.8546
- Complete [1, 17]: 0.7935
- Cholesterol-free media + simvastatin (0.04 μM) [2, 21]: 0.5373
- Complete Media [2, 22]: 0.6048
- Difference [2, 13]: 0.07

Molecule: CCOc1ccc(Cc2cc([C@@H]3O[C@H](CO)[C@@H](O)[C@H](O)[C@H]3O)ccc2Cl)cc1
- Complete ([1]; NCI-H292 cells, complete media): 0.6259
- Difference [1, 23]: −0.32
- Cholesterol-free media + simvastatin (0.04 μM) [2, 10]: 0.9312
- Complete Media [2, 5]: 1.177
- Difference [2, 13]: 0.25

Molecule: Leuprolide (Acetate)
- Cholesterol-free [1]: 1
- Complete [1]: 0.6877
- Difference [1]: −0.31
- Cholesterol-free media + simvastatin (0.04 μM) [2]: 1.032
- Complete Media [2]: 1.087
- Difference [2]: 0.06

Molecule: C[C@@H]1O[C@@H](OC[C@H]2O[C@@H](Oc3c(-c4ccc(OCCO)c(OCCO)c4)oc4cc(OCCO)cc(O)c4c3=O)[C@H](O)[C@@H](O)[C@@H]2O)[C@H](O)[C@H](O)[C@H]1O [Troxerutin]
- Difference [1, 3]: −0.13
- Cholesterol-free [1, 4]: 1.15
- Complete [1, 5]: 1.021
- Cholesterol-free media + simvastatin (0.04 μM) [2, 21]: 0.8482
- Complete Media [2, 22]: 0.9455
- Difference [2, 13]: 0.10
